Consider 1 compound from BindingDB's records for patent US12509424 (Nippon Shinyaku, 2025).

The test concerns the target Platelet-derived growth factor receptor beta (Homo sapiens, UniProt P09619). The test can be described thus: PDGFR-β Tyrosine Kinase Inhibitory Action. As to the method:
This DMSO solution was diluted by 8 times with an assay buffer 1 (50 mM HEPES (pH 7.0), 0.02% NaN3, 0.01% Bovine Serum Albumin, 0.1 mM orthovanadate, 1 mM Dithiothreitol, 5 mM MgCl2, and 1 mM MnCl2) and further diluted by 5 times with an assay buffer 2 (50 mM HEPES (pH 7.0), 0.02% NaN3, 0.01% Bovine Serum Albumin, 0.1 mM orthovanadate, 1 mM Dithiothreitol, 5 mM MgCl2, 1 mM MnCl2, and 40 nM Supplemented Enzymatic Buffer (cisbio)).2. Measurement of PDGFR-β Tyrosine Kinase Inhibitory ActionFor the measurement, the HTRF KinEASE-TK kit from Cisbio Bioassays SAS was used. To a 384 well plate, the test substance solution was added at 4 μL each, then 2 μL of a PDGFR-β enzyme solution (final concentration of 1 ng/μL, Carna Biosciences, Inc.) and 4 μL of a substrate solution obtained by adding 0.6 μM ATP to TK substrate-3-biotin (cisbio) were added, and the solution was allowed to react at 30° C. for 30 minutes at a final concentration of the test substance being 0.01 to 10,000 nM.Thereafter, 10 μL of a detection solution (cisbio) was added to each well and allowed to react at 30° C. for 1 hour. The fluorescence intensity was measured with a microplate reader (Spectra Max M5, Molecular device).

Platelet-derived growth factor receptor beta, sequence (P09619 whole entry): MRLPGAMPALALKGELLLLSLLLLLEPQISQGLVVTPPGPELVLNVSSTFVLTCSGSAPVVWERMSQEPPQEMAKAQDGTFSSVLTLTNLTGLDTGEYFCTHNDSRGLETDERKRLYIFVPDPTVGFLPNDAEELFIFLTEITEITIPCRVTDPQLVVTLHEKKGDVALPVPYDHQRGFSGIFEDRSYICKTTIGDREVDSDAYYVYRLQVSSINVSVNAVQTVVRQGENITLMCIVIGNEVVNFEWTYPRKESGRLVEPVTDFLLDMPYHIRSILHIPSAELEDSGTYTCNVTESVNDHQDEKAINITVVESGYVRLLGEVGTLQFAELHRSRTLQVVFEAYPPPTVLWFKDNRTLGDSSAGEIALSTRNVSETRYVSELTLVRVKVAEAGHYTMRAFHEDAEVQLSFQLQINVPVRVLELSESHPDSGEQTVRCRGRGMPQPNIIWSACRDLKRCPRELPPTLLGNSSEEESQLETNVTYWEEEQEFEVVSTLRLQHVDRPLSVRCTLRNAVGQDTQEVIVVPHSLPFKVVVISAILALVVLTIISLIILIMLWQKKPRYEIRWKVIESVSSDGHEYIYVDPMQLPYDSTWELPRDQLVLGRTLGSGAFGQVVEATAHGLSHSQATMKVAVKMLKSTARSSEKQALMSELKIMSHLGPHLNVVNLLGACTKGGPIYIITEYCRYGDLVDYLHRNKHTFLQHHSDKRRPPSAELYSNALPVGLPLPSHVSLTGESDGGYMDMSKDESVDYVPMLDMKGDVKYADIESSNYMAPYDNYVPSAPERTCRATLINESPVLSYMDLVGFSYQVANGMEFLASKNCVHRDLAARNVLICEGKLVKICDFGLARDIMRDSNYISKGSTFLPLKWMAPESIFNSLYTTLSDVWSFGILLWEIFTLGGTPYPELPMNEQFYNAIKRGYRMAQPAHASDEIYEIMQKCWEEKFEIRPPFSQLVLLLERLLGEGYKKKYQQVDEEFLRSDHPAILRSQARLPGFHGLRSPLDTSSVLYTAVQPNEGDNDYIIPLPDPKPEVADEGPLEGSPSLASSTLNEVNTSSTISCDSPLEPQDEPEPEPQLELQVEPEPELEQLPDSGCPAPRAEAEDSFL

In the case of `CC(=O)Nc1ccc(CNc2cc(C(=O)N[C@H]3CCCC[C@@H]3O)ccc2C)cn1` [US12509424, Example 116], the concentration for half-maximal inhibition (IC50) – broadly, the point on the concentration scale where inhibition reaches its midpoint – was determined as 66 nM.
